Format in all cases: cell-based, murine
In assay [1] the test system is B16F10 melanoma cells. Kind of assay: Visual pigmentation of B16F10 cells and culture medium. Particulars: 10-50 μg/ml, 5 days, medium change at day 3. The protocol:
B16F10 melanoma cells were treated with 10-50 μg/ml peptide of SEQ ID NO: 1 (“Lf B-17-34”) for 5 days with a medium change at day 3. The cells and medium were recovered in test tubes. Kojic acid is used as negative control in the cellular study due to known inhibitory effects on tyrosinase activity. IBMX is used as positive control in the cellular study due to known elevator of cellular cAMP level, to stimulate melanogenesis.
(§1) B16F10 murine melanoma cells were cultured in phenol red-free DMEM with 10% fetal bovine serum and penicillin/streptomycin (100 IU/50 […]) in a humidified atmosphere containing 5% CO2 in air at 37° C.

The subject of assay [2] is B16F10 cells. Kind of assay: Melanin content assay. Particulars: 10-50 μg/ml, 5 days. The protocol: as §1
Melanin contents of cultured B16F10 cells were measured according to the method (Lee et al., J Invest Dermatol 124, 405-411, 2005) with a slight modification. Briefly, B16F10 cells were seeded in 6-well plate (2×10^4 cells/well) and incubated overnight to allow cells to adhere. After treating with various test samples in an incubator for 5 days, washed, trypsinized and counted before pelleting. Melanin per cell was quantified after boiling in 1 M NaOH for 1 hour and melanin content in each sample was read from a calibration curve against synthetic eumelanin at 400 nm and converted to means±SE melanin pg/cell from 3 independent experiments.

Assay [3] deals with Tyrosinase. Description: Tyrosinase assay (cell lysate, L-DOPA). Particulars: B16F10 cells, 10-50 μg/ml, 5 days. As for the experimental part:
as §1
Tyrosinase is the rate limiting enzyme in the melanogenic pathway. Its measurement provides a highly specific and sensitive indication of degree of induction of melanogenesis. Tyrosinase enzyme activity of cultured B16F10 cells were measured according to the method of (Bellei et al., J Biol Chem 285, 7288-7299, 2010) with a slight modification. Briefly, B16F10 cells were seeded in 6-well plate (2×10^4 cells/well) and incubated overnight to allow cells to adhere. After treating with various test samples in an incubator for 5 days, cells were washed with PBS and then harvested using trypsin. At the end point, the cells were solubilized with phosphate buffer (pH 6.8) containing 1% Triton X-100. The cells were then disrupted by freezing and thawing, and the lysates were clarified by centrifugation at 10,000×g for 10 min. After protein quantification and adjustment of protein concentrations with lysis buffer, 100 μl of each lysate (each containing the same amount of protein) were aliquoted into the wells of a 96-well plate, and 100 μl of 5 mM L-DOPA were then added to each well. The absorbance was measured spectrophotometrically at 475 nm following a […] incubation period at 37° C. […]

The subject of assay [4] is Tyrosinase. Description: DOPA staining. Particulars: B16F10 cells, 10-50 μg/ml, 4 days. The protocol:
as §1
DOPA staining was also performed to measure tyrosinase enzyme activity. B16F10 cells were seeded in 6-well plate (2×10^4 cells/well) and incubated overnight to allow cells to adhere. After treating with various test samples in an incubator for 4 days, cells were washed with PBS, fixation with 2% paraformaldehyde and washing with PBS a further three times, the cells were incubated with 0.1% DOPA (dissolved in 0.1 M PBS) at 37° C. for 5 hour, and observed using light microscopy (Wang et al., Exp Ther Med 6, 967-972, 2013).

Consider “FKCRRWQWRMKKLGAPSI (listed as Bos taurus) [Lf B-17-34]”, for which, in assay [1], the “pigmentation in cells and in medium” value is “hyper pigmentation in cells as in medium to a similar extent”. Besides, the “melanin synthesis (melanin content in cells, melanin secretion in medium)” value in assay [2] is recorded as “significantly increased melanin synthesis in a concentration-dependent manner”. For the same sequence, in assay [3], the tyrosinase activity result is given as “significantly increased tyrosinase activity”. For the same sequence, the DOPA staining entry in assay [4] is “strong DOPA staining”.
